Results published in ChEMBL document CHEMBL1139339, “Alantrypinone and its derivatives: synthesis and antagonist activity toward insect GABA receptors” (2009).
Calls of active or inactive are those of the source. No cut-off for these calls is given here.

tested on: Neuron; assay: Inhibition of GABA-induced inward current in Periplaneta americana L neuron at 10 uM for 5 min by whole-cell patch clamp method; assay type: functional

| Structure (SMILES) | inhibition at 10 µM [%] |
| --- | --- |
| C[C@@]12NC(=O)[C@H](C[C@]13C(=O)Nc1ccccc13)n1c2nc2ccccc2c1=O | 90.3 |

tested on: Musca domestica; assay: Displacement of [3H]EBOB from housefly GABA receptor

| Structure (SMILES) | Activity |
| --- | --- |
| CN1C(=O)[C@@H]2[C@H]3C(=O)N(c4ccccc4)C(=O)[C@H]3[C@]1(C)c1nc3ccccc3c(=O)n12 (racemic) | Active |
| CN1C(=O)[C@@]2(C[C@H]3C(=O)N(C)[C@@]2(C)c2nc4ccccc4c(=O)n23)c2ccccc21 (racemic) | Active |
| CN1C(=O)[C@@]2(C[C@H]3C(=O)N[C@@]2(C)c2nc4ccccc4c(=O)n23)c2ccccc21 (racemic) | Active |
| CN1C(=O)[C@]2(C[C@H]3C(=O)N(C)[C@@]2(C)c2nc4ccccc4c(=O)n23)c2ccccc21 (racemic) | Active |
| CN1C(=O)[C@]2(C[C@H]3C(=O)N[C@@]2(C)c2nc4ccccc4c(=O)n23)c2ccccc21 (racemic) | Active |
| C[C@@]12NC(=O)[C@H](C[C@@]13C(=O)Nc1ccc(Cl)cc13)n1c2nc2ccc(Cl)cc2c1=O (racemic) | Active |
| C[C@@]12NC(=O)[C@H](C[C@@]13C(=O)Nc1ccc(Cl)cc13)n1c2nc2ccccc2c1=O (racemic) | Active |
| C[C@@]12NC(=O)[C@H](C[C@@]13C(=O)Nc1ccccc13)n1c2nc2cc(Cl)ccc2c1=O (racemic) | Active |
| C[C@@]12NC(=O)[C@H](C[C@@]13C(=O)Nc1ccccc13)n1c2nc2ccc(Cl)cc2c1=O (racemic) | Active |
| C[C@@]12NC(=O)[C@H](C[C@@]13C(=O)Nc1ccccc13)n1c2nc2ccc(F)cc2c1=O (racemic) | Active |
| C[C@@]12NC(=O)[C@H](C[C@]13C(=O)Nc1ccc(Cl)cc13)n1c2nc2ccc(Cl)cc2c1=O (racemic) | Active |
| C[C@@]12NC(=O)[C@H](C[C@]13C(=O)Nc1ccc(Cl)cc13)n1c2nc2ccccc2c1=O (racemic) | Active |
| C[C@@]12NC(=O)[C@H]([C@H]3C(=O)N(c4ccccc4)C(=O)[C@H]31)n1c2nc2ccccc2c1=O (racemic) | Active |

More lines, now with the values ahead:

| Activity | Structure (SMILES) |
| --- | --- |
| Active | CC(C)C[C@@]12NC(=O)[C@H](C[C@@]13C(=O)Nc1ccccc13)n1c2nc2ccccc2c1=O (racemic) |
| Active | CC(C)C[C@@]12NC(=O)[C@H](C[C@]13C(=O)Nc1ccccc13)n1c2nc2ccccc2c1=O (racemic) |
| Active | CC(C)[C@@]12NC(=O)[C@H](C[C@@]13C(=O)Nc1ccccc13)n1c2nc2ccccc2c1=O (racemic) |
| Active | CC(C)[C@@]12NC(=O)[C@H](C[C@]13C(=O)Nc1ccccc13)n1c2nc2ccccc2c1=O (racemic) |
| Active | CN1C(=O)[C@@H]2C[C@@]3(C(=O)N(Cc4ccccc4)c4ccccc43)[C@]1(C)c1nc3ccccc3c(=O)n12 (racemic) |
| Active | CN1C(=O)[C@@H]2C[C@]3(C(=O)N(Cc4ccccc4)c4ccccc43)[C@]1(C)c1nc3ccccc3c(=O)n12 (racemic) |
| Active | CN1C(=O)[C@@H]2C[C@]3(C(=O)Nc4ccccc43)[C@]1(C)c1nc3ccccc3c(=O)n12 (racemic) |
| Active | C[C@@]12NC(=O)[C@H](C[C@@]13C(=O)N(Cc1ccccc1)c1ccccc13)n1c2nc2ccccc2c1=O (racemic) |
| Active | C[C@@]12NC(=O)[C@H](C[C@@]13C(=O)Nc1ccccc13)n1c2nc2ccccc2c1=O (racemic) |
| Active | C[C@@]12NC(=O)[C@H](C[C@]13C(=O)N(Cc1ccccc1)c1ccccc13)n1c2nc2ccccc2c1=O (racemic) |
| Active | C[C@@]12NC(=O)[C@H](C[C@]13C(=O)Nc1ccccc13)n1c2nc2cc(Cl)ccc2c1=O (racemic) |
| Active | C[C@@]12NC(=O)[C@H](C[C@]13C(=O)Nc1ccccc13)n1c2nc2ccc(Cl)cc2c1=O (racemic) |
| Active | C[C@@]12NC(=O)[C@H](C[C@]13C(=O)Nc1ccccc13)n1c2nc2ccc(F)cc2c1=O (racemic) |
| Active | C[C@@]12NC(=O)[C@H](C[C@]13C(=O)Nc1ccccc13)n1c2nc2ccccc2c1=O (racemic) |
| Active | O=C1N[C@@]2(Cc3ccccc3)c3nc4ccccc4c(=O)n3[C@H]1C[C@@]21C(=O)Nc2ccccc21 (racemic) |
| Active | O=C1N[C@@]2(Cc3ccccc3)c3nc4ccccc4c(=O)n3[C@H]1C[C@]21C(=O)Nc2ccccc21 (racemic) |
